Results on 12 molecules are retold here after patent US20140127157A1, “ANTIVIRAL ACTIVITY OF TYROSINE KINASE INHIBITORS AGAINST HEPATITUS C VIRUS” (priority 2012, published 2014).

Series [1] relates to HCVcc. Put plainly: microbe, parasite or virus in culture. The settings on record: for pEC50: Huh7.5. The text has this:
(§1) The infectious cell culture system for HCV (HCVcc) is based on a unique full length strain of genotype 2a derived from a patient with fulminant hepatitis (JFH-1). HCVcc allows the complete virus life cycle to be studied in cell culture. A chimeric strain of JFH-1, termed Jc1JFH, is capable of more robust growth in tissue culture and can be engineered to encode a reporter gene. The activity of compounds such as nilotinib against HCVcc can be investigated using a Jc1JFH reporter virus encoding luciferase (Table 1). Naïve Huh-7.5 cells are treated with serially diluted compounds in DMSO for 2 h prior to infection with HCVcc. […] Both EC50 and CC50 values are normalized to cells treated with DMSO alone.

Another series can be described thus: in vitro. The settings on record: human.
From the text: as §1

The test system of the next series is HCV entry. The class given is cell-based, Hepatitis C virus (HCV). The settings on record: binding 1.5 h at 4° C., shift to 37° C., compound added at 20 min intervals up to 2 h; luciferase after 48 h.
The subject of the next series is HCVrep. Put plainly: HCV replicon (HCVrep) luciferase assay, JFH-1-based replicon cell line. Set-up: species or system Hepatitis C virus (HCV). The text has this:
(§2) HCVrep comprises a stable cell line harboring a sub-genomic replicon encoding a selectable marker (e.g., neomycin phosphotransferase), a reporter gene (e.g., luciferase) and the minimal HCV replicase proteins, NS3 to NS5B. Since the subgenomic replicon is non-infectious, the HCVrep system is used to study viral RNA replication independently of other stages of the life cycle, including virus entry/assembly/release. […] To determine the effects of compounds such as nilotinib on HCV RNA replication, a stable JFH-1-based replicon cell line encoding luciferase was established.

Series [2] can be described thus: Cytotoxicity in HCVrep cell line.
From the text: as §1, §2

The subject of series [3] is HCVcc. Put plainly: Time of addition experiment with HCVcc (FIG. 1). Type of series: cell-based, Hepatitis C virus (HCV). The following applies: treatment 1 (compound during first 4 h of infection) vs treatment 2 (added 4 h post-infection); luciferase at 72 h. How it is done:
FIG. 1. The effect of agents added before or after entry of HCV into cells. The presence of compound during both binding and post-binding are indicated by black bars; white bars indicate compounds present only at post-binding. DMSO, dimethyl sulfoxide; 5Ainh, HCV NS5A inhibitor (50×EC50); nilotinib (50×EC50); α-CD81, anti-CD81 antibody (1 μg/mL); α-IgG, iso-type control antibody (1 μg/mL).
To further explore the MOA of compounds such as nilotinib, a time of addition experiment is performed to determine whether the compound acted at an early (i.e., entry) or late (i.e., assembly/release) stage of the virus life cycle. Naive Huh7.5 cells are infected for 4 h with HCVcc in either the presence (treatment 1) or absence (treatment 2) of compound. At 4 h post-infection, compound is then added to the treatment 2 cells. At 72 h post infection, luciferase activity is determined. An inhibitor of viral entry (antibody targeting CD81) and an HCV replication inhibitor (5Ainh) are used as comparators.

Where [4] appears, read: Table 2, ratio of cytotoxicity to antiviral potency.

pEC50: −log10 of the molar value. Read-outs that look alike come from different tables or passages of the source.

Protocol for HCV entry: The effect of agents added during entry of HCV into cells-. HCV kinetic entry assay in the presence of compounds.
In this assay, infection is synchronized by incubation of cells and virus together for 1.5 h at 4° C. to allow binding, but not subsequent entry steps. After synchronization, unbound virus is removed by washing, and cells are shifted to 37° C. to initiate post-binding events. Compounds are added either immediately prior to (time zero), or at 20 min intervals post-temperature shift for up to 2 h. Compounds are removed at 4 h post-addition and luciferase activity is measured after 48 h of infection. Controls are included, which are known to block various steps of the HCV entry process: heparin sulfate (virus binding), anti-CD81 antibody (early post-virus binding), concanamycin A (ConA; late post-virus binding), bafilomycin (Baf; late post-virus binding), gefitinib (Gef; late post-virus binding). Percent inhibition is determined relative to treatment with compounds during synchronized virus binding at 4° C. Representative data of percent inhibition versus time of addition (FIG. 2) is used to estimate half-maximal times (t1/2) to inhibit HCV entry.

With `CNC(=O)c1cc(Oc2ccc(NC(=O)Nc3ccc(Cl)c(C(F)(F)F)c3)c(F)c2)ccn1` [Regorafenib, regorafenib], the pEC50 – broadly, the negative decadic logarithm of the EC50, by convention in mol/L – in the series with HCVcc [1] (Hepatitis C virus) was 6.48. Also, the CC50 in “in vitro” was > 2.5 µM.

Molecule `COc1cc2ncnc(Nc3ccc(F)c(Cl)c3)c2cc1OCCCN1CCOCC1` [Gefitinib, gefitinib] yielded a CC50 in “in vitro” of 10.6 µM.

Consider heparin sulfate, for which the “inhibition kinetics of HCV entry versus time of addition (t1/2)” value in the series with HCV entry is listed as “effectively blocks infection only when present during virus binding”.

For `Cc1ccc(C(=O)Nc2ccc(CN3CCN(C)CC3)c(C(F)(F)F)c2)cc1C#Cc1cnc2cccnn12` [Ponatinib, ponatinib], the pEC50 with HCVcc [1] (Hepatitis C virus) is 7.30.

The molecule `CNC(=O)c1cc(Oc2ccc(NC(=O)Nc3ccc(Cl)c(C(F)(F)F)c3)cc2)ccn1` [Sorafenib, sorafenib] showed a negative logarithm of the EC50 (pEC50) with HCVcc [1] (Hepatitis C virus) of 6.33. For the same molecule, the CC50/EC50 in the series on HCVcc [1] (setting [4]) came to 12.23. The CC50 in the series “in vitro” is 5.75 µM.

Consider `Cc1ccc(NC(=O)c2ccc(CN3CCN(C)CC3)cc2)cc1Nc1nccc(-c2cccnc2)n1` [Imatinib, imatinib], for which the “activity against the replicon” value in the series on HCVrep (at the concentrations tested) is “did not show activity at the concentrations tested”.

On to `Cc1cn(-c2cc(NC(=O)c3ccc(C)c(Nc4nccc(-c5cnccn5)n4)c3)cc(C(F)(F)F)c2)cn1` [Rodotinib, radotinib], for which, in the series on HCVcc [1] (Hepatitis C virus), the negative-log EC50 (pEC50) is 7.40. Besides, the CC50 in the series “in vitro” was > 2.5 µM.

Consider `CCN(CC)CCNC(=O)c1c(C)[nH]c(/C=C2\C(=O)Nc3ccc(F)cc32)c1C` [Sunitinib, sunitinib], for which the pEC50 in the series with HCVcc [1] (Hepatitis C virus) was 6.03. For the same molecule, in the series on HCVcc [1] (setting [4]), the CC50/EC50 stood at 3.77. This molecule came in with a CC50 in “in vitro” of 3.54 µM.

Take `C#Cc1cccc(Nc2ncnc3cc(OCCOC)c(OCCOC)cc23)c1` [Erlotinib, erlotinib]: the negative-log EC50 (pEC50) in the series with HCVcc [1] (Hepatitis C virus) was 6.33. In addition, the CC50 in “in vitro” is > 25 µM.

`Cc1cn(-c2cc(NC(=O)c3ccc(C)c(Nc4nccc(-c5cccnc5)n4)c3)cc(C(F)(F)F)c2)cn1` [Nilotinib, nilotinib] returned a CC50 at 72 h in series [2] of 8.2 µM. The same molecule gave a CC50/EC50 in the series on HCVcc [1] of 219.25. The negative-log EC50 (pEC50) in the series on HCVcc [1] (Hepatitis C virus) was 7.40; in the series with HCVrep (Hepatitis C virus, JFH-1-based replicon cell line, 72 h treatment), 5.38. Moreover, the EC50 (commonly the concentration that produces a half-maximal response) in the series on HCVcc [1] (Hepatitis C virus, Huh7.5, read-out: HCVcc (EC50, μM)) came out at 0.04 µM. Further, the CC50 in “in vitro” was determined as 8.77 µM; in “in vitro” (HCVcc (CC50, μM), uninfected compound-treated cells, CellTiter Glo), 8.8 µM. The “potency when added during versus after HCV entry” value with HCVcc [3] is “significantly more potent when added during the first 4 h of infection”.

Molecule `Cc1nc(Nc2ncc(C(=O)Nc3c(C)cccc3Cl)s2)cc(N2CCN(CCO)CC2)n1` [Dasatinib, dasatinib] came in with a CC50/EC50 in the series with HCVcc [1] of 12.65. The molecule also had a negative logarithm of the EC50 (pEC50) in the series on HCVcc [1] (Hepatitis C virus) of 5.83. Moreover, the CC50 in “in vitro” was found to be 18.7 µM.

In the series with HCVcc [1] (Hepatitis C virus), `Cc1ccc(NC(=O)c2ccc(CN3CCN(C)CC3)cc2)cc1Nc1nc(-c2cccnc2)cs1` [Masitinib, masitinib] gave a pEC50 of 6.11. Also, the CC50/EC50 in the series on HCVcc [1] (setting [4]) is 14.58. The same molecule showed a CC50 in “in vitro” of 6.27 µM.
